Read-outs that look alike come from different tables or passages of the source.
Assays:
[1] = test system: adult daily cigarette smokers
Procedure: Subjects are randomized to one of the three arms A, B, or C. In Arm A, subjects are treated with a placebo for 12 weeks plus behavioral support. In Arm B, subjects are treated with 3.0 mg cytisinicline TID for 6 weeks followed by a placebo for 6 weeks plus behavioral support. In Arm C, subjects are treated with 3.0 mg cytisinicline TID for 12 weeks plus behavioral support.
The safety objectives of the study will be the following: • To evaluate the safety profile of 3.0 mg TID cytisinicline compared to placebo (e.g., Arm B versus Arm A and Arm C versus Arm A); • To compare the safety profiles of Arm B subjects versus Arm C subjects with respect to adverse events occurring after Week 6 on the study.
The population for this study will be male or female adults who are daily cigarette smokers, intending to quit smoking, and are willing to set a quit date that is within 5 to 7 days of the start of treatment. Study treatment will start the day after randomization.
Safety assessments at clinic visits will occur on Day 2 and Day 7 during Week 1 and then weekly throughout the Treatment Period. Laboratory hematology and chemistry assessments will be made on Day 7, Week 6, and Week 12 (End of Treatment “EOT”) during the Treatment Period. Any ongoing adverse events at Week 12 will be followed until resolved or determined to be chronic. The end of study is defined as the last follow-up visit (up to the Week 24 visit) for the last subject.
The Treatment Period will begin on the day after randomization. Study treatment will be blinded, and subjects will take one study tablet three times during the day, approximately 5 hours apart. Subjects randomly assigned to Arm A will take one placebo tablet at each dosing per day for 12 weeks. Arm B subjects will take one cytisinicline tablet at each dosing per day for the first 6 weeks followed by one placebo tablet at each dosing per day for the last 6 weeks. Arm C subjects will take one cytisinicline tablet at each dosing per day for 12 weeks.
Laboratory (hematology and chemistry) evaluations will be performed at the Week 1, Week 6, and Week 12 clinic visits using a central laboratory.
Safety will be assessed by consideration of all adverse events reported by or elicited from the subject and abnormalities detected on hematology and serum chemistry tests. Worsening of other pre-existing medical conditions and any changes to concomitant medications/treatments will also be taken into account in this evaluation.
Routine laboratory safety samples will be analyzed at screening and at clinic visits as identified in Table 15 for each subject by a central laboratory. […] Clinically significant abnormalities occurring during the study will be recorded on the AE page. The reference ranges for laboratory parameters will also be entered in the database and filed in the Investigator site file.
Safety assessments will include reported adverse events, laboratory test results, and vital signs. Safety variables will be summarized for the Safety Analysis Set (SAS), defined as all randomized subjects who take at least one dose of study drug.
Adverse events (AEs) will be coded using the MedDRA dictionary. Coding will include system organ class (SOC) and preferred term (PT). All verbatim descriptions and coded terms will be listed for all AEs.

[2] = test system: adults smoking 10+ cigarettes daily; conditions: for Quit Rate, End-of-Treatment Week 4 / Quit Rate, Continuous Abstinence Weeks 5 to 8: CO<10 ppm confirmed; for Reduction in cigarettes smoked / Reduction in CO: 25 days; for Drug-placebo difference in quit rate: cytisinicline 3.0 mg TID; for Reduction in CO: expired CO; for Quit Rate, Continuous Abstinence Weeks 5 to 8: off treatment
Procedure: This was a six-arm, multi-center, double-blind, randomized, placebo-controlled study conducted in male or female adults ≥18 years of age, smoking 10+ cigarettes daily, and willing to set a quit date that is 5-7 days after randomization. […] The study also evaluated the effectiveness of a simplified TID dosing schedule for 1.5 mg and an increased dose of 3.0 mg (using both the commercial titration (COM) and simplified TID dosing schedules).
Study treatment started the day after randomization such that study treatment was initiated prior to the quit date, as shown in FIG. 3.
The primary efficacy endpoint for this study was the percent reduction in the number of cigarettes smoked during treatment, which was calculated as follows:
where N=total number of cigarettes smoked, B=number of cigarettes smoked at baseline and D=number of days.
The primary outcome (Cigarette Score) and the main secondary abstinence outcomes were subjected to sensitivity analyses. The main secondary abstinence outcomes were the initial quit rate at Week 4 and continued 4-week abstinence through Week 5 to Week 8, confirmed by expired carbon monoxide (CO) of <10 ppm designated as Cess/W5-8/CO Success.
Carbon monoxide (CO) levels (ppm) were assessed during the study at screening, baseline, end of study treatment intervention (Week 4), and weekly through Week 8 (FIG. 9).
Serum cotinine levels were exploratory and assessed only at screening, Week 4, and Week 8. Reported results for cotinine of <10 ng/mL were transformed to 0 ng/mL prior to statistical analysis.
The primary outcome was based on the number of cigarettes smoked on each day from a diary. The Cigarette Score used the diary data for the planned 25 days while on study treatment. Presented are sensitivity analyses for the comparison of the 3.0 mg TID arm and the pooled placebo arm related to variations on the primary analysis of Cigarette Score. The alternative definition of the Cigarette Score featured cigarettes recorded in the diary after the planned quit period of Days 5-7, that is, from Day 8 onward, instead of from Day 1 onward.
Another alterative analysis was based on re-analyses of the primary Cigarette Score and the above alternative Cigarette Score, with a weight related to the standard error of the mean number of cigarettes estimated from the diary entries. The weight used for each subject was 1/(SE)^2, where SE is the standard error of the mean estimate, and this type of weighting, referred to as inverse variance weighting, is used commonly. This weighting gives greater weight to means that are estimated with a smaller SE. A small modification to this definition of weight was necessary, however. In computing 1/(SE)^2, a specific rule was used when SE=0, specifically when all diary entry values were equal. In these cases, the SE was computed as if one and only one of the recorded values was larger by one. It can be shown that when this modification to the data is made SE=1/N, where N is the number of the subjects daily (days) entries.

[3] = follow up period, start day 161, resolution day 161, pooled blinded
[4] = follow up period, start day 180, no resolution day, pooled blinded
[5] = cytisine 1.5 mg, downward titration (COM) schedule
[6] = cytisine 3.0 mg TID, listed as CYT
[7] = cytisine 3.0 mg TID, listed as Cytisinicline
[8] = cytisine 3.0 mg, downward titration (COM) schedule

SMILES: O=c1cccc2n1C[C@@H]1CNC[C@H]2C1 [cytisine, (−)-Cytisine]
- Serious adverse event Dyspnea: Severity/Intensity ([1]; follow up period, start day 151, resolution day 161, pooled blinded): Severe
- Serious adverse event Stab Wound: Causality [1, 3]: Not
- Serious adverse event Stab Wound: Outcome [1, 3]: Fatal
- Serious adverse event Stab Wound: Severity/Intensity [1, 3]: Severe
- Serious adverse event Dyspnea: Causality [1, 4]: Not
- Serious adverse event Dyspnea: Outcome [1, 4]: Not Recovered/Not
- Serious adverse event Dyspnea: Severity/Intensity [1, 4]: Severe
- Psychiatric adverse event Abnormal dreams, % ([1]; pooled blinded data): (7.5) %
- Psychiatric adverse event Acute stress disorder, % ([1]; pooled blinded data): (0.1) %
- Psychiatric adverse event Adjustment disorder with depressed mood, % ([1]; pooled blinded data): (0.1) %
- Psychiatric adverse event Affect lability, % ([1]; pooled blinded data): (0.1) %
- Psychiatric adverse event Anhedonia, % ([1]; pooled blinded data): (0.5) %
- Psychiatric adverse event Anxiety, % ([1]; pooled blinded data): (2.5) %
- Psychiatric adverse event Attention deficit hyperactivity disorder, % ([1]; pooled blinded data): (0.1) %
- Psychiatric adverse event Bipolar disorder, % ([1]; pooled blinded data): (0.1) %
- Psychiatric adverse event Bruxism, % ([1]; pooled blinded data): (0.1) %
- Psychiatric adverse event Depressed mood, % ([1]; pooled blinded data): (0.5) %
- Psychiatric adverse event Depression, % ([1]; pooled blinded data): (2.0) %
- Psychiatric adverse event Initial insomnia, % ([1]; pooled blinded data): (0.3) %
- Psychiatric adverse event Insomnia, % ([1]; pooled blinded data): (10.2) %
- Psychiatric adverse event Irritability, % ([1]; pooled blinded data): (1.7) %
- Psychiatric adverse event Major depression, % ([1]; pooled blinded data): (0.1) %
- Psychiatric adverse event Mood swings, % ([1]; pooled blinded data): (0.1) %
- Psychiatric adverse event Nightmare, % ([1]; pooled blinded data): (1.1) %
- Psychiatric adverse event Panic attack, % ([1]; pooled blinded data): (0.3) %
- Psychiatric adverse event Paranoia, % ([1]; pooled blinded data): (0.1) %
- Psychiatric adverse event Post-traumatic stress disorder, % ([1]; pooled blinded data): (0.1) %
- Psychiatric adverse event Restlessness, % ([1]; pooled blinded data): (0.3) %
- Psychiatric adverse event Sleep disorder, % ([1]; pooled blinded data): (0.5) %
- Psychiatric adverse event Somnambulism, % ([1]; pooled blinded data): (0.1) %
- Psychiatric adverse event Stress, % ([1]; pooled blinded data): (0.1) %
- Psychiatric adverse event Suicidal ideation, % ([1]; pooled blinded data): (0.1) %
- Psychiatric adverse event Suicide attempt, % ([1]; pooled blinded data): (0.3) %
- Psychiatric disorders (any psychiatric reported adverse event), % ([1]; pooled blinded data): (22.9) %
- Abnormal lab AE related to study drug, Elevated ALT Level: Outcome of Adverse Event ([1]; start Day 29, dose not changed): Recovered/Resolved
- Abnormal lab AE related to study drug, Elevated ALT Level: Severity ([1]; start Day 29, dose not changed): Mild
- Abnormal lab AE related to study drug, Elevated AST Level: Outcome of Adverse Event ([1]; start Day 29, dose not changed): Recovered/Resolved
- Abnormal lab AE related to study drug, Elevated AST Level: Severity ([1]; start Day 29, dose not changed): Mild
- Abnormal lab AE related to study drug, Elevated Hemoglobin: Outcome of Adverse Event ([1]; start Day 85): Recovered/Resolved
- Abnormal lab AE related to study drug, Low White Blood Count: Outcome of Adverse Event ([1]; start Day 85): Not Recovered/Not
- Abnormal lab AE related to study drug, Elevated ALT: Outcome of Adverse Event ([1]; start Day 169): Not Recovered/Not
- Abnormal lab AE related to study drug, Elevated ALT: Severity ([1]; start Day 169): Moderate
- Abnormal lab AE related to study drug, Low White Blood Count: Parameter value at AE ([1]; value at screening 5.1 × 10^9/L, start Day 85): 2.5e+09 L⁻¹
- Abnormal lab AE related to study drug, Elevated ALT Level: Parameter value at AE ([1]; value at screening 25 IU/L, start Day 29, dose not changed): 195 IU/L
- Abnormal lab AE related to study drug, Elevated AST Level: Parameter value at AE ([1]; value at screening 29 IU/L, start Day 29, dose not changed): 129 IU/L
- Abnormal lab AE related to study drug, Elevated ALT: Parameter value at AE ([1]; value at screening 50 IU/L, start Day 169): 82 IU/L
- Abnormal lab AE related to study drug, Elevated Hemoglobin: Parameter value at AE ([1]; value at screening 158 g/L, start Day 85): 130 g/L
- Quit Rate, End-of-Treatment Week 4 ([2]; cytisine 1.5 mg TID): 52%
- Quit Rate, End-of-Treatment Week 4 [2, 5]: 51%
- Quit Rate, End-of-Treatment Week 4 ([2]; cytisine 3.0 mg TID): 54%
- Quit Rate, End-of-Treatment Week 4 [2, 6]: 54%
- Quit Rate, End-of-Treatment Week 4 [2, 7]: 54%
- Quit Rate, End-of-Treatment Week 4 [2, 8]: 50%
- Serum cotinine levels ([2]; all cytisine-treated arms, Week 4): material reduction in cotinine levels
- OR for initial quit rate at Week 4 versus placebo ([2]; cytisine 1.5 mg TID): 5.81
- OR for prolonged abstinence Week 5 to Week 8 versus placebo ([2]; cytisine 1.5 mg TID): 4.33
- Reduction in cigarettes smoked ([2]; cytisine 1.5 mg TID): 79%
- OR for initial quit rate at Week 4 versus placebo ([2]; cytisine 1.5 mg, COM schedule): 5.59
- OR for prolonged abstinence Week 5 to Week 8 versus placebo ([2]; cytisine 1.5 mg, COM schedule): 3.23
- Reduction in cigarettes smoked [2, 5]: 80%
- OR for initial quit rate at Week 4 versus placebo ([2]; cytisine 3.0 mg TID): 6.31
- OR for prolonged abstinence Week 5 to Week 8 versus placebo ([2]; cytisine 3.0 mg TID): 5.04
- Reduction in cigarettes smoked ([2]; cytisine 3.0 mg TID): 74%
- OR for initial quit rate at Week 4 versus placebo [2, 7]: 6.3
- OR for prolonged abstinence Week 5 to Week 8 versus placebo [2, 7]: 5.0
- OR for initial quit rate at Week 4 versus placebo ([2]; cytisine 3.0 mg, COM schedule): 5.38
- OR for prolonged abstinence Week 5 to Week 8 versus placebo ([2]; cytisine 3.0 mg, COM schedule): 2.24
- Reduction in cigarettes smoked [2, 8]: 78%
- Drug-placebo difference in quit rate ([2]; 4 weeks = end of treatment): 38.3%
- Drug-placebo difference in quit rate ([2]; 4 weeks off treatment (Weeks 5-8)): 22.2%
- Reduction in CO ([2]; cytisine 1.5 mg TID): 71%
- Reduction in CO [2, 5]: 78%
- Reduction in CO ([2]; cytisine 3.0 mg TID): 80%
- Reduction in CO [2, 8]: 71%
- Cigarette Score effect estimate (3.0 mg TID versus pooled placebo) ([2]; not weighted, diary start: Quit Day (8th day after start of intervention)): −11.8
- Cigarette Score effect estimate (3.0 mg TID versus pooled placebo) ([2]; not weighted, diary start: start of intervention (primary outcome)): −9.5
- Quit Rate, Continuous Abstinence Weeks 5 to 8 ([2]; cytisine 1.5 mg TID): 27%
- Quit Rate, Continuous Abstinence Weeks 5 to 8 [2, 5]: 22%
- Quit Rate, Continuous Abstinence Weeks 5 to 8 ([2]; cytisine 3.0 mg TID): 30%
- Quit Rate, Continuous Abstinence Weeks 5 to 8 [2, 6]: 30%
- Quit Rate, Continuous Abstinence Weeks 5 to 8 [2, 7]: 30%
- Quit Rate, Continuous Abstinence Weeks 5 to 8 [2, 8]: 16%
- Cigarette Score effect estimate (3.0 mg TID versus pooled placebo) ([2]; weighted analysis, diary start: Quit Day (8th day after start of intervention)): −15.0
- Cigarette Score effect estimate (3.0 mg TID versus pooled placebo) ([2]; weighted analysis, diary start: start of intervention): −11.8

— patent US20260158011A1 (Achieve Life Sciences, Inc., priority 2023, published 2026)
